≈ marks a conversion by molar mass, not a printed value.
Legend:
[1] = system: H influenzae 49247; test: MIC, H influenzae 49247; assay type: cell-based, Haemophilus influenzae; conditions: for H. influenzae 49247 (microbiological data): Table 6, related compounds of US 6878691; for MIC: Haemophilus influenzae, 49247, Table 5
Protocol: (§1) Susceptibility tests can be used to quantitatively measure the in vitro activity of an antimicrobial agent against a given bacterial isolate. Compounds are tested for in vitro antibacterial activity by a micro-dilution method. Minimal Inhibitory Concentration (MIC) is determined in 96 well microtiter plates utilizing the appropriate broth medium for the observed bacterial isolates. Antimicrobial agents are serially diluted (2-fold) in DMSO to produce a concentration range from about 64 μg/ml to about 0.03 μg/ml. The diluted compounds (2 μl/well) are then transferred into sterile, uninoculated medium (0.2 mL) by use of a 96 fixed tip-pipetting station. The inoculum for each bacterial strain is standardized to approximately 5×10^5 CFU/mL by optical comparison to a 0.5 McFarland turbidity standard. The plates are inoculated with 10 μl/well of adjusted bacterial inoculum. The 96 well plates are covered and incubated at 35±2° C. for 24 hours in ambient air environment. Following incubation, plate wells are visually examined by Optical Density measurement for the presence of growth (turbidity). The lowest concentration of an antimicrobial agent at which no visible growth occurs is defined as the MIC.
(§2) All in vitro testing follows the guidelines described in the Approved Standards M7-A7 protocol, published by the Clinical Laboratory Standards Institute (CLSI).

[2] = system: MRSA 33591; test: MIC, MRSA 33591; assay type: cell-based, Staphylococcus aureus; conditions: for MRSA 33591 (microbiological data): Table 6, related compounds of US 6878691; for MIC: Staphylococcus aureus, MRSA, Table 5
Protocol: as §1, §2

[3] = system: H influenzae 33929; test: MIC, H influenzae 33929; assay type: cell-based, Haemophilus influenzae; conditions: for H. influenzae 33929 (microbiological data): Table 6, related compounds of US 6878691; for MIC: Haemophilus influenzae, 33929, Table 5
Protocol: as §1, §2

[4] = system: MRSA 7662; test: MIC, MRSA 7662; assay type: cell-based; conditions: Staphylococcus aureus, Table 5, read-out: MIC MRSA 7662
Protocol: as §1, §2

| SMILES | H. influenzae 49247 (microbiological data) [1] | MRSA 33591 (microbiological data) [2] | H. influenzae 33929 (microbiological data) [3] | MIC [2] [µg/mL] | MIC [4] [µg/mL] | MIC [1] [µg/mL] | MIC [3] [µg/mL] |
| --- | --- | --- | --- | --- | --- | --- | --- |
| CCC1OC(=O)C(C)C(=O)C(C)C(OC2OC(C)CC(N(C)C)C2O)C2(C)CC(C)C(=NC(C)=O)C(C)C(OCC(=NOCc3ccc(-n4cncn4)cc3)CO2)C1(C)O (centres unmarked) [Example 91 in US 6878691] | 8 | >64 | 16 |  |  |  |  |
| CCC1OC(=O)C(C)C(=O)C(C)C(OC2OC(C)CC(N(C)C)C2O)C2(C)CC(C)C(=NC(C)=O)C(C)C(OCC(=NOCc3cnc(-n4cccn4)c(F)c3)CO2)C1(C)O (centres unmarked) [Example 259 in US 6878691] | 4 | >64 | 8 |  |  |  |  |
| CCC1OC(=O)C(C)C(=O)C(C)C(OC2OC(C)CC(N(C)C)C2O)C2(C)CC(C)C(=NC(C)=O)C(C)C(OCC(=NOCc3ccc(-c4nnc(N)s4)nc3)CO2)C1(C)O (centres unmarked) [Example 234 in US 6878691] | 4 | >64 | 4 |  |  |  |  |
| CCC1OC(=O)C(C)C(=O)C(C)C(OC2OC(C)CC(N(C)C)C2O)C2(C)CC(C)C(=NC(C)=O)C(C)C(OCC(=NOCc3ccc(-c4cccs4)nc3)CO2)C1(C)O (centres unmarked) [Example 205 in US 6878691] | 8 | >64 | 4 |  |  |  |  |
| CCC1OC(=O)C(C)C(=O)C(C)C(OC2OC(C)CC(N(C)C)C2O)C2(C)CC(C)C(=NC(C)=O)C(C)C(OCC(=NOCc3ccc(-c4cccc(N)n4)nc3)CO2)C1(C)O (centres unmarked) [Example 227 in US 6878691] | 4 | 32 | 4 |  |  |  |  |
| CCC1OC(=O)C(C)C(=O)C(C)C(OC2OC(C)CC(N(C)C)C2O)C2(C)CC(C)C(=NC(C)=O)C(C)C(OCC(=NOCc3ccc(-c4ncccn4)cc3)CO2)C1(C)O (centres unmarked) [Example 193 in US 6878691] | 8 | 64 | 8 |  |  |  |  |
| CCC(=O)/N=C1\[C@H](C)C[C@@]2(C)OC/C(=N/OCc3coc(-c4cccc(N)n4)n3)CO[C@H]([C@H]1C)[C@](C)(O)[C@@H](CC)OC(=O)[C@@](C)(F)C(=O)[C@H](C)[C@H]2O[C@@H]1O[C@H](C)C[C@H](N(C)C)[C@H]1O [Compound 11] |  |  |  | 4 (≈ 4.5 µM) | 2 (≈ 2.25 µM) |  |  |
| CC[C@H]1OC(=O)[C@H](C)C(=O)[C@H](C)[C@@H](O[C@@H]2O[C@H](C)C[C@H](N(C)C)[C@H]2O)[C@@]2(C)C[C@@H](C)C(=O)[C@H](C)[C@@H](OC/C(=N\OCc3ccc(-c4nc(N)ns4)cn3)CO2)[C@]1(C)O [Compound 2] |  |  |  |  |  | 1 (≈ 1.2 µM) | 2 (≈ 2.4 µM) |
| CCC1OC(=O)C(C)C(=O)C(C)C(OC2OC(C)CC(N(C)C)C2O)C2(C)CC(C)C(=NC(C)=O)C(C)C(OCC(=NOCc3cc(-c4cccnc4)no3)CO2)C1(C)O (centres unmarked) [Example 69 in US 6878691] | 16 | >64 | 16 |  |  |  |  |
| CCC1OC(=O)C(C)(F)C(=O)C(C)C(OC2OC(C)CC(N(C)C)C2O)C2(C)CC(C)C(=NC(C)=O)C(C)C(OCC(=NOCc3ccc(-c4cnccn4)s3)CO2)C1(C)O (centres unmarked) [Example 141 in US 6878691] | 8 | 32 | 8 |  |  |  |  |
| CCC1OC(=O)C(C)(F)C(=O)C(C)C(OC2OC(C)CC(N(C)C)C2O)C2(C)CC(C)C(=NC(C)=O)C(C)C(OCC(=NOCc3ccc(-c4csnn4)cc3)CO2)C1(C)O (centres unmarked) [Example 219 in US 6878691] | 4 | 32 | 4 |  |  |  |  |
| CCC1OC(=O)C(C)C(=O)C(C)C(OC2OC(C)CC(N(C)C)C2O)C2(C)CC(C)C(=NC(C)=O)C(C)C(OCC(=NOCc3ccc(-c4nccs4)nc3)CO2)C1(C)O (centres unmarked) [Example 212 in US 6878691] | 8 | 64 | 4 |  |  |  |  |
| CCC1OC(=O)C(C)C(=O)C(C)C(OC2OC(C)CC(N(C)C)C2O)C2(C)CC(C)C(=NC(C)=O)C(C)C(OCC(=NOCc3noc(-c4ccccc4)n3)CO2)C1(C)O (centres unmarked) [Example 106 in US 6878691] | 8 | >64 | 8 |  |  |  |  |
| CCC1OC(=O)C(C)C(=O)C(C)C(OC2OC(C)CC(N(C)C)C2O)C2(C)CC(C)C(=NC(C)=O)C(C)C(OCC(=NOCc3ccc(-c4csnn4)cc3)CO2)C1(C)O (centres unmarked) [Example 72 in US 6878691] | 8 | >64 | 8 |  |  |  |  |
| CCNC(=O)c1cccc(-c2cc(CON=C3COC4C(C)C(=NC(C)=O)C(C)CC(C)(OC3)C(OC3OC(C)CC(N(C)C)C3O)C(C)C(=O)C(C)C(=O)OC(CC)C4(C)O)on2)n1 (centres unmarked) [Example 195 in US 6878691] | 32 | >64 | 32 |  |  |  |  |
| CCC1OC(=O)C(C)(F)C(=O)C(C)C(OC2OC(C)CC(N(C)C)C2O)C2(C)CC(C)C(=NC(C)=O)C(C)C(OCC(=NOCc3ccc(-c4ncccn4)s3)CO2)C1(C)O (centres unmarked) [Example 140 in US 6878691] | 8 | 16 | 8 |  |  |  |  |
| CCC1OC(=O)C(C)(F)C(=O)C(C)C(OC2OC(C)CC(N(C)C)C2O)C2(C)CC(C)C(=NC(C)=O)C(C)C(OCC(=NOCc3ccc(-c4cccc(N)n4)s3)CO2)C1(C)O (centres unmarked) [Example 173 in US 6878691] | 4 | 4 | 4 |  |  |  |  |
| CCC1OC(=O)C(C)(F)C(=O)C(C)C(OC2OC(C)CC(N(C)C)C2O)C2(C)CC(C)C(=NC(C)=O)C(C)C(OCC(=NOCc3ccc(-n4cccn4)nc3)CO2)C1(C)O (centres unmarked) [Example 214 in US 6878691] | 8 | 64 | 4 |  |  |  |  |
| CCC1OC(=O)C(C)C(=O)C(C)C(OC2OC(C)CC(N(C)C)C2O)C2(C)CC(C)C(=NC(C)=O)C(C)C(OCC(=NOCc3ccc(-c4ccccn4)s3)CO2)C1(C)O (centres unmarked) [Example 115 in US 6878691] | 16 | >64 | 16 |  |  |  |  |
| CCC1OC(=O)C(C)C(=O)C(C)C(OC2OC(C)CC(N(C)C)C2O)C2(C)CC(C)C(=NC(C)=O)C(C)C(OCC(=NOCc3ccc(-c4cccnc4)s3)CO2)C1(C)O (centres unmarked) [Example 66 in US 6878691] | 16 | >64 | 16 |  |  |  |  |
| CCC(=O)/N=C1\[C@H](C)C[C@@]2(C)OC/C(=N/OCc3csc(-c4cccc(N)n4)n3)CO[C@H]([C@H]1C)[C@](C)(O)[C@@H](CC)OC(=O)[C@@](C)(F)C(=O)[C@H](C)[C@H]2O[C@@H]1O[C@H](C)C[C@H](N(C)C)[C@H]1O [Compound 3] |  |  |  | 2 (≈ 2.21 µM) | 1 (≈ 1.1 µM) | 1 (≈ 1.1 µM) | 4 (≈ 4.42 µM) |
